Data as given in article PMC5418314, “First-in-human phase I study of SOR-C13, a TRPV6 calcium channel inhibitor, in patients with advanced solid tumors” (Investigational New Drugs, 2017).
Ends that are not written are not given here.

Legend:
hERG = hERG (Homo sapiens, UniProt Q12809); experiment: hERG channel activity; type: biochemical
[1] = tested on: voltage-gated potassium channels; experiment: voltage-gated potassium channel activity; type: biochemical
[2] = half-life in the blood compartment, dog; type: in vivo
[3] = Phase I safety and tolerability (NCI CTCAE v4.0, DLT) in patients with advanced solid tumors; type: in vivo, human
Description: Dose-escalation was carried out according to a standard 3 + 3 design. At each dose level, cohorts of 3 to 6 patients were scheduled to receive two 21-day cycles of SOR-C13 treatment. SOR-C13 was administered on days 1–3 and 8–10 of the 21-day cycle was administered by IV infusion. The study drug (500 mg/vial) was dissolved in water for injection (2 mL) and diluted in saline prior to infusion to provide a 250 mL (total) infusion volume. Infusion time was increased after the first five patients from the initial 20 min to 90 min with the aim of increasing the safety and tolerability of the drug. In the event of clinically meaningful response (tumor response or stable disease), additional SOR-C13 cycles were offered to study patients. Post-treatment follow-up was completed one and two months after completion of SOR-C13 treatment.
(§1) A Safety Monitoring Committee (SMC) oversaw the safety aspects of the study. Safety endpoints included: incidence of adverse events (AEs) and serious AEs (SAEs), withdrawals due to AEs, Dose Limiting Toxicities (DLTs), infusion reactions, deaths on study, vital signs, electrocardiogram (ECGs), clinical laboratory parameters and changes to the treatment regimen (dose delay, dose decrease) due to AEs. The National Cancer Institute (NCI) Common Terminology Criteria for Adverse Events (CTCAE) Version 4.0 was used to grade the severity of AEs.
Based on the safety data from the first two cohorts, the regulatory authorities approved a revision of the definition to “one occurrence of ≥Grade 3 toxicity or one occurrence of Grade 2 hypocalcemia, over the first 21-day cycle”. The latter definition was used for the subsequent four cohorts in the study.

Phase I ECG assessment = type: in vivo, human
Source text: as §1

[4] = Cohort 1 5.5 mg/kg N = 3, 20-min infusions
[5] = Cohort 1, 5.50 mg/kg, C1 D2, Dose# 2
[6] = Cohort 1, 5.50 mg/kg, C1 D8, Dose# 4
[7] = Cohort 2 2.75 mg/kg N = 2, 20-min infusions
[8] = Cohort 2, 2.75 mg/kg, C1 D2, Dose# 2
[9] = Cohort 3 1.375 mg/kg N = 3, 90-min infusions
[10] = Cohort 4 2.75 mg/kg N = 6, 90-min infusions
[11] = Cohort 4, 2.75 mg/kg, C1 D3, Dose# 3
[12] = Cohort 5 4.13 mg/kg N = 3, 90-min infusions
[13] = Cohort 6 6.20 mg/kg N = 6, 90-min infusions
[14] = Cohort 6, 6.20 mg/kg, C1 D8, Post 3
[15] = Cohort 6, 6.20 mg/kg, C1 D18, Post 6

Chain of hERG (Q12809 whole entry): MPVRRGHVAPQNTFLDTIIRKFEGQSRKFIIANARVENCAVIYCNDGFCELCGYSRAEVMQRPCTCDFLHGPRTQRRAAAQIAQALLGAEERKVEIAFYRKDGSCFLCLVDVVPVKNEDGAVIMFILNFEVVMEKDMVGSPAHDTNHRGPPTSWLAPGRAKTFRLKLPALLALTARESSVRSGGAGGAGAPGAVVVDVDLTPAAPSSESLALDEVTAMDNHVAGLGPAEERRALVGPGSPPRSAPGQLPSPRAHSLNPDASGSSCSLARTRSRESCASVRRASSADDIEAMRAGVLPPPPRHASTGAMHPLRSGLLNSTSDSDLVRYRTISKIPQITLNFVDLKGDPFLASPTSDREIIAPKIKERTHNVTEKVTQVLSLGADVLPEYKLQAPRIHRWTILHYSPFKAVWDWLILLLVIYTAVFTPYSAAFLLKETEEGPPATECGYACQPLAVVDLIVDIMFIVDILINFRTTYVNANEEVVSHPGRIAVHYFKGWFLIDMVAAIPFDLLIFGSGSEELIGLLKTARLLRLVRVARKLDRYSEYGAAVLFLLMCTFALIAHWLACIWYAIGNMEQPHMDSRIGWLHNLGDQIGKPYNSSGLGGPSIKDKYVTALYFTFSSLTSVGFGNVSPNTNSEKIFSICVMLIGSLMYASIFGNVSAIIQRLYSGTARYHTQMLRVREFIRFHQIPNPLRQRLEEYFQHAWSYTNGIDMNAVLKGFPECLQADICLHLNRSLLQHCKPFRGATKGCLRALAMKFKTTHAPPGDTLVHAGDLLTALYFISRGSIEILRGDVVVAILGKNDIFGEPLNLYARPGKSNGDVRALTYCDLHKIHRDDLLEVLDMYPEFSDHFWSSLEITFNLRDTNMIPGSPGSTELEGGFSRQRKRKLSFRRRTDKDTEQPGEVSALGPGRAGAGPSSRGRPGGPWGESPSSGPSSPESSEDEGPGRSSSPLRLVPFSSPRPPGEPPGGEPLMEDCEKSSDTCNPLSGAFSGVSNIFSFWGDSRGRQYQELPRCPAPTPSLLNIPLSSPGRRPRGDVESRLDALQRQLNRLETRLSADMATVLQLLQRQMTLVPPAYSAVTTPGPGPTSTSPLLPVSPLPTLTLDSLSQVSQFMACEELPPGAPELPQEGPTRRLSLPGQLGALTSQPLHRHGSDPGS

KEFLHPSKVDLPR [SOR-C13]
modulation of channel activity (hERG): no modulation of channel activity | modulation of channel activity [1]: no modulation of channel activity | half-life in the blood compartment [2]: < 5 min | Any TEAEs, Event ([3]; All Patients N = 23): 185 | TEAEs Definitely related, Event ([3]; All Patients N = 23): 5 | TEAEs Possibly related, Event ([3]; All Patients N = 23): 29 | TEAEs Probably related, Event ([3]; All Patients N = 23): 7 | TEAEs Remotely/Unlikely related, Event ([3]; All Patients N = 23): 10 | TEAEs Remotely/Unlikely related, Patient ([3]; All Patients N = 23): 4 (17) | TEAEs Unrelated, Event ([3]; All Patients N = 23): 134 | TEAEs Unrelated, Patient ([3]; All Patients N = 23): 21 (91) | Any TEAEs, Event [3, 4]: 49 | Any TEAEs, Patient [3, 4]: 3 (100) | TEAEs Definitely related, Event [3, 4]: 5 | TEAEs Definitely related, Patient [3, 4]: 2 (67) | TEAEs Possibly related, Event [3, 4]: 3 | TEAEs Possibly related, Patient [3, 4]: 2 (67) | TEAEs Probably related, Event [3, 4]: 3 | TEAEs Probably related, Patient [3, 4]: 2 (67) | TEAEs Remotely/Unlikely related, Event [3, 4]: 4 | TEAEs Remotely/Unlikely related, Patient [3, 4]: 1 (33) | TEAEs Unrelated, Event [3, 4]: 34 | TEAEs Unrelated, Patient [3, 4]: 3 (100) | DLT Blood calcium decreased, Relationship [3, 5]: Probably related | DLT Blood calcium decreased, Severity [3, 5]: Grade 2 | DLT Blood calcium decreased, Relationship [3, 6]: Definitely related | DLT Blood calcium decreased, Severity [3, 6]: Grade 2 | Any TEAEs, Event [3, 7]: 11 | Any TEAEs, Patient [3, 7]: 2 (100) | TEAEs Definitely related, Event [3, 7]: 0 | TEAEs Definitely related, Patient [3, 7]: 0 (0) | TEAEs Possibly related, Event [3, 7]: 0 | TEAEs Possibly related, Patient [3, 7]: 0 (0) | TEAEs Probably related, Event [3, 7]: 1 | TEAEs Probably related, Patient [3, 7]: 1 (50) | TEAEs Remotely/Unlikely related, Event [3, 7]: 0 | TEAEs Remotely/Unlikely related, Patient [3, 7]: 0 (0) | TEAEs Unrelated, Event [3, 7]: 10 | TEAEs Unrelated, Patient [3, 7]: 2 (100) | DLT Blood calcium decreased, Relationship [3, 8]: Probably related | DLT Blood calcium decreased, Severity [3, 8]: Grade 2 | Any TEAEs, Event [3, 9]: 25 | Any TEAEs, Patient [3, 9]: 3 (100) | TEAEs Definitely related, Event [3, 9]: 0 | TEAEs Definitely related, Patient [3, 9]: 0 (0) | TEAEs Possibly related, Event [3, 9]: 0 | TEAEs Possibly related, Patient [3, 9]: 0 (0) | TEAEs Probably related, Event [3, 9]: 0 | TEAEs Probably related, Patient [3, 9]: 0 (0) | TEAEs Remotely/Unlikely related, Event [3, 9]: 2 | TEAEs Remotely/Unlikely related, Patient [3, 9]: 1 (33) | TEAEs Unrelated, Event [3, 9]: 23 | TEAEs Unrelated, Patient [3, 9]: 3 (100) | frequency of drug-related TEAEs ([3]; Cohort 3 (1.375 mg/kg), 90-min infusions): 0% | Any TEAEs, Event [3, 10]: 52 | Any TEAEs, Patient [3, 10]: 6 (100) | TEAEs Definitely related, Event [3, 10]: 0 | TEAEs Definitely related, Patient [3, 10]: 0 (0) | TEAEs Possibly related, Event [3, 10]: 11 | TEAEs Possibly related, Patient [3, 10]: 4 (67) | TEAEs Probably related, Event [3, 10]: 0 | TEAEs Probably related, Patient [3, 10]: 0 (0) | TEAEs Remotely/Unlikely related, Event [3, 10]: 4 | TEAEs Remotely/Unlikely related, Patient [3, 10]: 2 (33) | TEAEs Unrelated, Event [3, 10]: 37 | TEAEs Unrelated, Patient [3, 10]: 6 (100) | frequency of drug-related TEAEs ([3]; Cohort 4 (2.75 mg/kg), 90-min infusions): 67% | DLT Ionized calcium decreased, Relationship [3, 11]: Possibly related | DLT Ionized calcium decreased, Severity [3, 11]: Grade 2 | Any TEAEs, Event [3, 12]: 14 | Any TEAEs, Patient [3, 12]: 3 (100) | TEAEs Definitely related, Event [3, 12]: 0 | TEAEs Definitely related, Patient [3, 12]: 0 (0) | TEAEs Possibly related, Event [3, 12]: 5 | TEAEs Possibly related, Patient [3, 12]: 3 (100) | TEAEs Probably related, Event [3, 12]: 3 | TEAEs Probably related, Patient [3, 12]: 1 (33) | TEAEs Remotely/Unlikely related, Event [3, 12]: 0 | TEAEs Remotely/Unlikely related, Patient [3, 12]: 0 (0) | TEAEs Unrelated, Event [3, 12]: 6 | TEAEs Unrelated, Patient [3, 12]: 2 (67) | frequency of drug-related TEAEs ([3]; Cohort 5 (4.13 mg/kg), 90-min infusions): 100% | Any TEAEs, Event [3, 13]: 34 | Any TEAEs, Patient [3, 13]: 6 (100) | TEAEs Definitely related, Event [3, 13]: 0 | TEAEs Definitely related, Patient [3, 13]: 0 (0) | TEAEs Possibly related, Event [3, 13]: 10 | TEAEs Possibly related, Patient [3, 13]: 6 (100) | TEAEs Probably related, Event [3, 13]: 0 | TEAEs Probably related, Patient [3, 13]: 0 (0) | TEAEs Remotely/Unlikely related, Event [3, 13]: 0 | TEAEs Remotely/Unlikely related, Patient [3, 13]: 0 (0) | TEAEs Unrelated, Event [3, 13]: 24 | TEAEs Unrelated, Patient [3, 13]: 5 (83) | frequency of drug-related TEAEs ([3]; Cohort 6 (6.20 mg/kg), 90-min infusions): 100% | DLT Atrial fibrillation, Relationship [3, 14]: Unrelated | DLT Atrial fibrillation, Severity [3, 14]: Grade 3 | DLT Anaemia, Relationship [3, 15]: Unrelated | DLT Anaemia, Severity [3, 15]: Grade 3 | Grade 4 TEAEs ([3]; N = 23): No Grade 4 TEAE occurred | TEAEs by MedDRA SOC: Gastrointestinal disorders, patients ([3]; N = 23): 48% | TEAEs by MedDRA SOC: General disorders and administration site conditions, patients ([3]; N = 23): 44% | TEAEs by MedDRA SOC: Infections and infestations, patients ([3]; N = 23): 48% | TEAEs by MedDRA SOC: Investigations, patients ([3]; N = 23): 44% | TEAEs by MedDRA SOC: Metabolism and nutrition disorders, patients ([3]; N = 23): 65% | drug-related Serious Adverse Events (SAEs) ([3]; N = 23): No drug-related Serious Adverse Events (SAEs) occurred | TEAE Anaemia, percentage of patients ([3]; N = 23, MedDRA preferred term): 30% | TEAE Aspartate amino transferase increased, percentage of patients ([3]; N = 23, MedDRA preferred term): 17% | TEAE Blood Calcium Decreased, percentage of patients ([3]; N = 23, MedDRA preferred term): 22% | TEAE Blood alkaline phosphatase increased, percentage of patients ([3]; N = 23, MedDRA preferred term): 13% | TEAE Constipation, percentage of patients ([3]; N = 23, MedDRA preferred term): 17% | TEAE Cough, percentage of patients ([3]; N = 23, MedDRA preferred term): 17% | TEAE Decreased Appetite, percentage of patients ([3]; N = 23, MedDRA preferred term): 22% | TEAE Diarrhoea, percentage of patients ([3]; N = 23, MedDRA preferred term): 13% | TEAE Fatigue, percentage of patients ([3]; N = 23, MedDRA preferred term): 30% | TEAE Hypercalcaemia, percentage of patients ([3]; N = 23, MedDRA preferred term): 13% | TEAE Hyperkalaemia, percentage of patients ([3]; N = 23, MedDRA preferred term): 13% | TEAE Hypoalbuminaemia, percentage of patients ([3]; N = 23, MedDRA preferred term): 30% | TEAE Hypocalcaemia, percentage of patients ([3]; N = 23, MedDRA preferred term): 13% | TEAE Nausea, percentage of patients ([3]; N = 23, MedDRA preferred term): 22% | TEAE Urinary Tract Infection, percentage of patients ([3]; N = 23, MedDRA preferred term): 30% | total number of Grade 3 TEAEs ([3]; N = 23, in thirteen patients): 18 | patients with DLTs ([3]; all cohorts, N = 23, first 21-day cycle): 26.1% | drug-related blood calcium decrease, patients ([3]; all patients N = 23): 13% | drug-related decreased appetite, patients ([3]; all patients N = 23): 9% | drug-related hypoalbuminemia, patients ([3]; all patients N = 23): 30% | drug-related hypocalcemia, patients ([3]; all patients N = 23): 13% | drug-related increased aspartate aminotransferase (AST), patients ([3]; all patients N = 23): 9% | Maximal Tolerated Dose (MTD) ([3]; doses up to 6.2 mg/kg): not established | drug-related hypocalcemia, patients ([3]; patients receiving 90-min infusions (n = 18)): 13% | patients with TEAEs related to the study drug ([3]; possibly, probably or definitely related, total population N = 23): 70% | Grade 3 TEAEs assessed as related to the study drug ([3]; urticaria, ALT increased, AST increased, headache, hypokalaemia): Five of the 18 | deaths during treatment or post-treatment follow-up ([3]; within two months after the last study drug administration): No deaths occurred | mean changes in QTc intervals compared to pre-infusion values (Phase I ECG assessment; 90-min infusions (N = 18), Cycle 1): −4.2 to +12.7 msec | ECG abnormalities (Phase I ECG assessment; during the study): No clinically significant ECG abnormalities | QT or QTc prolongations above 500 msec (Phase I ECG assessment; during the study): no QT or QTc prolongations above 500 msec | QTc prolongation >60 msec compared to baseline or same-day pre-dose values (Phase I ECG assessment; during the study): no patient experienced QTc prolongation >60 msec
